Assay results from patent US20030036103A1, “Methods and compositions for diagnosis and treatment of vascular conditions” (priority 2001, published 2003).

Key:
Type in all cases: cell-based
[1] = system: human microvascular endothelial cells (HMVEC); experiment: TNFα-induced heparanase secretion by endothelial cells with signaling inhibitors (immunoblot); conditions: HMVEC incubated with TNFα and inhibitor for 16 h; wortmannin 0.1 and 0.5 μM, Ly294002 10 and 50 μM, SN50 10 μM, FPT inhibitor III 100 μM, PD98059 5 μM, SB203580 650 nM, ZM336372 200 nM, caspase inhibitor III 10 μM; FIG. 5
Procedure: Human microvascular endothelial cells (HMVEC) were grown in 48-well plates (˜90% confluency). To induce heparanase activity, culture media was replaced with 200 μl Dulbecco's modified Eagle's medium (DMEM) complemented with 1% bovine serum albumin (BSA), 100 ng biotinylated HS and TNFα with or without (FIG. 5A) P13 kinase inhibitors (wortmannin, 0.1 μM and 0.5 μM, or Ly294002, 10 μM and 50 μM), (FIG. 5B) NFκB inhibitor (SN50, 10 μM), several MAP kinase inhibitors (FIG. 5C)—either 100 μM FPT inhibitor III (FPT, inhibits Ras processing in cells), 5 μM MAP kinase (MEK), inhibitor PD98059 (PD), 650 nM p38 kinase inhibitor SB203580 (SB), 200 nM c-Raf inhibitor ZM336372 (ZM); or an inhibitor cocktail (Cl) that contains all of the four inhibitors; or broad-spectrum caspase inhibitor III (Casp-I, 10 μM) (FIG. 5D). The cells were incubated with TNFα and the inhibitors for 16 h. The culture media was collected and the secreted proteins were analyzed by SDS-PAGE and heparanase protein was detected by immunoblotting using polyclonal anti-human heparanase antibody.

[2] = system: human microvascular endothelial cells (HMVEC); experiment: Induction of endothelial heparanase protein by cytokines (immunoblot); conditions: TNFα
Procedure: Experiments were done on human microvascular endothelial cells (HMVEC) grown in 48-well plates (˜90% confluency). To induce heparanase activity, culture media was replaced with 200 μl Dulbecco's modified Eagle's medium (DMEM) complemented with 1% bovine serum albumin (BSA) and 100 ng biotinylated HS with or without stimulants (5 ng/ml TGFα, 1 ng/ml IL 1β, or 200 ng/ml VEGF). Cells were incubated in a cell culture incubator for 16-18 hours and the entire 200 μmedia was added to a streptavidin-coated plate and followed by standard color development assay as described in Example 2. The secreted proteins were analyzed by SDS-PAGE and heparanase protein was detected by immunoblotting using polyclonal anti-human heparanase antibody.
Human microvascular endothelial cells (HMVEC) were grown in 48-well plates (˜90% confluency). To induce heparanase activity, culture media was replaced with 200 μl Dulbecco's modified Eagle's medium (DMEM) complemented with 1% bovine serum albumin (BSA) and 100 ng biotinylated HS with 0, 0.02, 1.5 and 5 ng/ml of TNFα. The secreted heparanase was detected by immunoblotting the culture media with anti-human heparanase antibody.

endothelial cells = experiment: Heparanase expression in endothelial cells induced by lysolecithin

| Compound | inhibition of TNFα-induced heparanase secretion [1] | other results |
| --- | --- | --- |
| COc1cccc(-c2cc(=O)c3ccccc3o2)c1N [PD98059] | do not inhibit |  |
| C[S+]([O-])c1ccc(-c2nc(-c3ccncc3)c(-c3ccc(F)cc3)[nH]2)cc1 (stereo not drawn) [SB203580] | do not inhibit |  |
| Cc1ccc(NC(=O)c2cccc(N(C)C)c2)cc1NC(=O)c1ccc(O)cc1 [ZM336372] | do not inhibit |  |
| COC(=O)CC(NC(=O)OC(C)(C)C)C(=O)CF (stereo not drawn) [caspase inhibitor III] | blocked heparanase secretion |  |
| TNFα |  | induction of heparanase in endothelial cells [2]: induces heparanase |
| lysolecithin |  | induction of heparanase expression in endothelial cells (endothelial cells): induces heparanase expression |
